Laboratory results reported in PubChem BioAssay AID2060510 (Molecular Pharmacology Branch, DTP, NCI, 2025).

Tested on: 439559-082-T-J2-PDC spheroids viability
Experiment: Anticancer human tumor 439559-082-T-J2-PDC patient-derived colon adenocarcinoma cell line growth inhibition [GQUAD]
Conditions: for IC50: curve of first compound; for viability, T/C: stronger effect = lower value
Source text: DNA G-quadruplex Stabilizer Agents in Combinations in Complex Spheroids
A high-throughput screen of multi-cell type tumor spheroids was designed to identify active combinations of DNA G-quadruplex stabilizer agents and targeted small molecules. Complex spheroids include a stromal component modeled by human endothelial cells (HUVEC) and fibroblasts modeled by human mesenchymal stem cells (MSCs). The concentration ranges selected for each drug and investigational agent were based upon clinically achievable concentrations if the clinical Cmax of the agent was known.
Compounds. The drugs and investigational agents: pidnarulex (CX-5461; NSC782164), APTO-253 (NSC789042), BRACO-19 (NSC847499), peposertib (NSC802822), ceralasertib (NSC780249), elimusertib (NSC800525), camonsertib (NSC841442), AZD-1390 (NSC803789), olaparib (NSC753686), talazoparib (NSC767125), ART-558 (NSC835418), sotorasib (NSC818433), MRTX-1133 (NSC836407), SN-38 (NSC673596), topotecan (NSC609699), etoposide (NSC141540), doxorubicin (NSC123127), gemcitabine (NSC613327), 5-fluorouracil (NSC19893), paclitaxel (NSC125973), vemurafenib (NSC761431), panobinostat (NSC761190), R-306465 (JNJ-16241199; NSC773264), adavosertib (NSC754352), TP-3654 (NSC805149), carboplatin (NSC241240), KSQ-4279 (NSC840948), and staurosporine (NSC755774) were obtained from the National Cancer Institute (NCI) Developmental Therapeutics Program Chemical Repository (34). The FDA-approved anticancer drug set is available from the NCI Developmental Therapeutics Program. […] The stock solutions were prepared in dimethyl sulfoxide (DMSO, Sigma-Aldrich, St. Louis, MO, cat. D2650) at 800-fold the tested concentration and stored at -70 degrees C prior to their use. All drugs and investigational agents were tested over a range starting from a high concentration at or near the clinical Cmax and decreasing in half-log increments. If the clinical Cmax for an agent had not been determined, the highest concentration tested was 10 microM.
2.3 Cell Culture. All cells were maintained in an incubator at 37 degrees C and 5% CO2 with 95% humidity. The PDC lines were cultured according to standard operating procedures established by the NCI PDMR. All PDCs were thawed and cultured in Matrigel-coated flasks prepared with a working solution of 1X Ham's F-12 nutrient mix, without supplementation (Invitrogen, cat. 11765054), 100 U/mL penicillin-streptomycin (Invitrogen, cat. 15140122), and 2.5% Matrigel (Corning Inc., cat. 354248) for the first three passages. The 857933-349-R-J2-PDC line was cultured in 6C/Colon 1B media, which includes advanced DMEM/F-12 (Thermo Fisher Scientific, cat. 12634028), 10 mM HEPES (Thermo Fisher Scientific, cat. 15630080), 1X GlutaMAX supplement (Thermo Fisher Scientific, cat. 35050061), 0.1 mg/mL primocin (InvivoGen, cat. ant-pm-2), 10% defined fetal bovine serum, heat inactivated (HyClone Laboratories Inc., cat. SH30070.03HI), 50% L-WRN conditioned media (ATCC, cat. CRL-3276), 1.25 mM N-Acetyl-L-cysteine (Sigma-Aldrich, cat. A9165), 10 mM nicotinamide (Sigma-Aldrich, cat. N0636), 1X B-27 supplement (Thermo Fisher Scientific, cat. 17504044), 1X N-2 supplement (Thermo Fisher Scientific, cat. 17502048), 10 microM Y-27632 dihydrochloride (Tocris Bioscience, cat. 1254), and 50 ng/mL human EGF recombinant protein (Thermo Fisher Scientific, cat. PHG0311). The 485176-168-R4-J1-PDC line was cultured in Panc media, which includes all 6C/Colon 1B media components plus 100 ng/mL human FGF-10 (Thermo Fisher Scientific, cat. 100-26), 500 nM SB-431542 (Selleckchem, cat. S1067), and gastrin (Tocris, cat. 3006).
[…]
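Note: spheroids exposed to the agents for 7 days before readout.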
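Throughout, for viability, T/C: percent of luminescence signal in DMSO vehicle wells taken as 100% viability.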

O=C(c1cc(Cc2n[nH]c(=O)c3ccccc23)ccc1F)N1CCN(C(=O)C2CC2)CC1 + CN(C)c1ccc(Nc2c3ccc(NC(=O)CCN4CCCC4)cc3nc3cc(NC(=O)CCN4CCCC4)ccc23)cc1 was tested, and the IC50 (second compound 0.0316 µM) was > 10 µM, the IC50 (second compound 0.1 µM) was > 10 µM and the IC50 (second compound 0.316 µM) was > 10 µM. The IC50 (second compound 1 µM) was > 10 µM, the IC50 (second compound 3.16 µM) was > 10 µM and the IC50 (second compound 10 µM) was > 10 µM. It also gave a viability, T/C (second compound 0.0316 µM, first compound 0.0316 µM) of 101%, a viability, T/C (second compound 0.0316 µM, first compound 0.1 µM) of 92.1% and a viability, T/C (second compound 0.0316 µM, first compound 0.316 µM) of 102%. For the same compound, the viability, T/C (second compound 0.0316 µM, first compound 1 µM) was 99.6%, the viability, T/C (second compound 0.0316 µM, first compound 3.16 µM) was 94.4% and the viability, T/C (second compound 0.0316 µM, first compound 10 µM) was 95.5%. The viability, T/C (second compound 0.1 µM, first compound 0.0316 µM) was 101%, the viability, T/C (second compound 0.1 µM, first compound 0.1 µM) was 96.6% and the viability, T/C (second compound 0.1 µM, first compound 0.316 µM) was 99.2%. It also gave a viability, T/C (second compound 0.1 µM, first compound 1 µM) of 97.9%, a viability, T/C (second compound 0.1 µM, first compound 3.16 µM) of 101% and a viability, T/C (second compound 0.1 µM, first compound 10 µM) of 87.3%. The viability, T/C (second compound 0.316 µM, first compound 0.0316 µM) was 96.2%, the viability, T/C (second compound 0.316 µM, first compound 0.1 µM) was 104% and the viability, T/C (second compound 0.316 µM, first compound 0.316 µM) was 98.5%. It also gave a viability, T/C (second compound 0.316 µM, first compound 1 µM) of 96.2%, a viability, T/C (second compound 0.316 µM, first compound 3.16 µM) of 100% and a viability, T/C (second compound 0.316 µM, first compound 10 µM) of 90.8%. The viability, T/C (second compound 1 µM, first compound 0.0316 µM) was 98.3%, the viability, T/C (second compound 1 µM, first compound 0.1 µM) was 95.1% and the viability, T/C (second compound 1 µM, first compound 0.316 µM) was 95.3%. It also gave a viability, T/C (second compound 1 µM, first compound 1 µM) of 97.6%, a viability, T/C (second compound 1 µM, first compound 3.16 µM) of 98.5% and a viability, T/C (second compound 1 µM, first compound 10 µM) of 107%. For the same compound, the viability, T/C (second compound 3.16 µM, first compound 0.0316 µM) was 103%, the viability, T/C (second compound 3.16 µM, first compound 0.1 µM) was 99.7% and the viability, T/C (second compound 3.16 µM, first compound 0.316 µM) was 94.9%. For the same compound, the viability, T/C (second compound 3.16 µM, first compound 1 µM) was 101%, the viability, T/C (second compound 3.16 µM, first compound 3.16 µM) was 99.1% and the viability, T/C (second compound 3.16 µM, first compound 10 µM) was 99.7%. For the same compound, the viability, T/C (second compound 10 µM, first compound 0.0316 µM) was 105%, the viability, T/C (second compound 10 µM, first compound 0.1 µM) was 96.8% and the viability, T/C (second compound 10 µM, first compound 0.316 µM) was 104%. For the same compound, the viability, T/C (second compound 10 µM, first compound 1 µM) was 93%, the viability, T/C (second compound 10 µM, first compound 3.16 µM) was 108% and the viability, T/C (second compound 10 µM, first compound 10 µM) was 94.9%.
